# Measured values from PubChem BioAssay AID1996.
# Conditions: buffer; pH 7.4; 200.0 µM
row,SMILES,solubility kinetic [µg/mL]
1,Fc1cccc(/C=C2\CCCC3=C2NC(=S)NC3c2cccc(F)c2)c1 (stereo unspecified),7
2,FC(F)Oc1ccc(NC(=S)NCc2ccco2)cc1Cl,> 49.9
3,COc1ccc2oc(=O)c(C(=O)Nc3ccccc3C)cc2c1,2.3
4,O=C(CNC(=O)[C@@H]1Cc2ccccc2CN1)NC1CCCC1,> 45.2
5,O=S(=O)(c1ccc(F)cc1)N1CCCC1,> 34.4
6,CC(=O)Nc1nc(C)c(Oc2cccc(C(F)(F)F)c2)c(=O)[nH]1,45.1
7,CCn1cc(C(=O)NCCC(=O)NCCCO)c(=O)c2cc3c(cc21)OCO3,> 58.4
8,CC1CCCCN1C(=O)Cn1cnc2cc([N+](=O)[O-])ccc2c1=O (stereo unspecified),> 49.6
9,COCC(=O)Nc1ccc(Br)cc1C,35.8
10,COC(=O)c1ccc(NCC(=O)Nc2cc(C)cc(C)c2)cc1,5.4
11,Cc1ccc(C(=O)OCC(=O)N2CCOCC2)c(C)c1,34
12,CC12CC3(C)CC(C)(C1)CC(C(=O)NCc1cccnc1)(C2)C3,> 46.9
13,COc1ccc(NC(=O)NC2(C(=O)N3CCCC3)CCCCC2)cc1,24
14,COC(=O)c1cccc(N2C(=O)C3C4C=CC(CC4)C3C2=O)c1 (stereo unspecified),9.2
15,COc1ccc(C(CNC(=O)CN(C)S(=O)(=O)c2ccc(C)cc2)N2CCCC2)cc1 (stereo unspecified),> 66.8
16,CN(C(=O)CC1C(=O)NCCN1Cc1ccc(F)cc1)C1CCOCC1 (stereo unspecified),> 54.5
17,COc1ccc(CCNC(=O)c2ccc(OC)c(OC)c2)cc1OC,39.6
18,Cc1c(Cl)cccc1NC(=O)C1CCCN(S(C)(=O)=O)C1 (stereo unspecified),7.3
19,Cc1ccc2c(CC(=O)NNC(=O)c3ccncc3)coc2c1,> 46.4
20,Cc1cnc(N2C(=O)c3ccc([N+](=O)[O-])cc3C2=O)s1,28
21,COc1ccc(CNC(=O)c2cccc(NC(=O)CC3SC(N4CCCCC4)=NC3=O)c2)cc1 (stereo unspecified),7.6

row,SMILES,solubility kinetic [µg/mL]
1,Cn1c(N)c(C(=O)COC(=O)Cc2ccc(Br)cc2)c(=O)n(C)c1=O,0.7
2,CC(=O)N1CCN(S(=O)(=O)c2ccc(C)cc2)C1C (stereo unspecified),> 42.4
3,COc1ccccc1C(=O)Nc1ccccc1C(=O)Nc1ccccc1,< 0.4
4,COc1ccccc1NS(=O)(=O)c1cccc(NS(=O)(=O)c2ccc(Cl)c(C(=O)O)c2)c1,> 74.5
5,Cc1cccc(N(C)S(=O)(=O)c2csc(C(N)=O)c2)c1,> 46.6
6,CCOc1ccc(Nc2nc(NCc3ccco3)nc(N)c2[N+](=O)[O-])cc1,< 0.1
7,CC(=O)c1c(C)[nH]c(C(=O)OCc2ccc([N+](=O)[O-])cc2)c1C,2.1
8,CC(NC(=O)Cn1cc(C(F)(F)F)ccc1=O)c1ccc(F)cc1 (stereo unspecified),23.5
9,CCCC(C)NC(=O)CSc1nc2ccc(C)cc2[nH]1 (stereo unspecified),> 43.7
10,CCOc1ccc(Nc2ccnc3cc(Cl)ccc23)cc1,< 0.3
11,COc1cc(C(=O)OCCNC(=O)c2cccnc2)cc(OC)c1OC.Cl,> 59.5
12,COc1ccc(S(=O)(=O)NC2CC3CCC2C3)cc1 (stereo unspecified),36.5
13,Cc1ccc(S(=O)(=O)NC2=NCN(C(C)C)CN2)cc1,> 44.5
14,CC(C)(C)NC(=O)NC(=O)CN1CCCCC1,> 36.2
15,COc1ccc(N2C(=S)NC3CS(=O)(=O)CC32)cc1 (stereo unspecified),> 44.8
16,O=C1COc2ccc(C(=O)NC3CC3)cc2N1,> 34.8
17,O=C(Cn1c(=O)n(CC2CS2)c2ccccc21)N1CCCCC1 (stereo unspecified),> 49.7
18,O=c1nc(N2CCCC2)nc(N2CCCC2)[nH]1,34.3
19,CCOCCCNCc1cc(Cl)ccc1OCC.Cl,> 46.2
20,CCCNC(=O)N1CCCC(C(N)=O)C1 (stereo unspecified),> 32

# Other lines, results leading:
row,solubility kinetic [µg/mL],SMILES
1,52.4,Cc1ccc(NC(=O)CN(C)C(=O)COc2cccc3cccnc23)cc1
2,< 0.7,COc1ccccc1N1C(=O)c2cccc3c(Cl)ccc(c23)C1=O
3,> 49.6,CN1CCN(c2ccc(NC(=O)c3ccc(Cl)cc3)cn2)CC1
4,> 42.2,Cc1cc(C)n(Cc2cc(C(=O)O)c3ccccc3n2)n1
5,> 60.8,CC(=O)Nc1ccc(S(=O)(=O)N(C)CC(=O)NCCOc2ccccc2)cc1
6,1,S=C(Nc1ccc(Cl)cc1Cl)N1CCN(c2ccccn2)CC1
7,> 45.5,COC(=O)c1ccccc1NC(=O)CSc1ncccn1
8,> 43,Cc1ccc(SCCC(=O)NCc2ccccn2)cc1
9,3.4,Cc1ccsc1C(=O)OCC(=O)Nc1cccc(F)c1
10,> 46.7,CC1CN(c2ccccc2)c2nc3c(c(=O)[nH]c(=O)n3C)n2C1 (stereo unspecified)
11,46.8,Cc1cc(C)cc(NC(=O)N2c3ccccc3NC(=O)CC2C)c1 (stereo unspecified)
12,< 0.3,COc1nc(-c2ccccc2)ncc1S(=O)(=O)c1ccccc1
13,> 43.3,CCNC(=S)N1CCC(n2cnc3ccccc32)CC1
14,38.4,CC(Oc1ccc(C#N)cc1)C(=O)N1CC=C(c2ccccc2)CC1 (stereo unspecified)
15,> 42.5,C=CCC(=O)NC(C)c1cnn(-c2ccccc2C)c1C (stereo unspecified)
16,> 39.6,Cc1nccn1CCC(=O)Nc1ccc(Cl)cc1
17,> 41.4,Cc1ccc(CONC(=O)c2ccccc2Cl)cc1
18,> 46.6,COc1ccc(N2C(=O)CCC2(C(N)=O)c2ccccc2)cc1 (stereo unspecified)
19,> 35.1,CSc1ncc(CO)n1Cc1ccccc1
20,> 44.9,CC(=O)CSc1nnc(-c2ccco2)n1-c1ccccc1
